Values joined by “and” are separate entries in the source; they are usually repeats but may differ in a detail not shown here. Equal values may be shown once.
Test system: 874868-142-R-J2-PDC complex spheroids, growth % test/control
Assay: Anticancer human tumor 874868-142-R-J2-PDC patient-derived head and neck squamous carcinoma cell line growth inhibition [CLK]
Conditions: for viability, T/C: stronger effect = lower value; active = viability on the fitted dose curve at most 10% of control; inactive = the rest
Procedure, shortened: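 Multi-cell-type spheroids combined patient-derived tumor cells with HUVEC endothelial cells and human mesenchymal stem cells. Paired agents were dosed in half-log steps down from about clinical Cmax, or from 10 microM where Cmax was unknown.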

[1] = curve of first compound, second compound 0.0316 µM
[2] = curve of first compound, second compound 0.1 µM
[3] = curve of first compound, second compound 0.316 µM
[4] = curve of first compound, second compound 1 µM
[5] = curve of first compound, second compound 3.16 µM
[6] = curve of first compound, second compound 10 µM
[7] = second compound 0.0316 µM, first compound 0.0316 µM
[8] = second compound 0.0316 µM, first compound 0.1 µM
[9] = second compound 0.0316 µM, first compound 0.316 µM
[10] = second compound 0.0316 µM, first compound 1 µM
[11] = second compound 0.0316 µM, first compound 3.16 µM
[12] = second compound 0.0316 µM, first compound 10 µM
[13] = second compound 0.1 µM, first compound 0.0316 µM
[14] = second compound 0.1 µM, first compound 0.1 µM
[15] = second compound 0.1 µM, first compound 0.316 µM
[16] = second compound 0.1 µM, first compound 1 µM
[17] = second compound 0.1 µM, first compound 3.16 µM
[18] = second compound 0.1 µM, first compound 10 µM
[19] = second compound 0.316 µM, first compound 0.0316 µM
[20] = second compound 0.316 µM, first compound 0.1 µM
[21] = second compound 0.316 µM, first compound 0.316 µM
[22] = second compound 0.316 µM, first compound 1 µM
[23] = second compound 0.316 µM, first compound 3.16 µM
[24] = second compound 0.316 µM, first compound 10 µM
[25] = second compound 1 µM, first compound 0.0316 µM
[26] = second compound 1 µM, first compound 0.1 µM
[27] = second compound 1 µM, first compound 0.316 µM
[28] = second compound 1 µM, first compound 1 µM
[29] = second compound 1 µM, first compound 3.16 µM
[30] = second compound 1 µM, first compound 10 µM
[31] = second compound 3.16 µM, first compound 0.0316 µM
[32] = second compound 3.16 µM, first compound 0.1 µM
[33] = second compound 3.16 µM, first compound 0.316 µM
[34] = second compound 3.16 µM, first compound 1 µM
[35] = second compound 3.16 µM, first compound 3.16 µM
[36] = second compound 3.16 µM, first compound 10 µM
[37] = second compound 10 µM, first compound 0.0316 µM
[38] = second compound 10 µM, first compound 0.1 µM
[39] = second compound 10 µM, first compound 0.316 µM
[40] = second compound 10 µM, first compound 1 µM
[41] = second compound 10 µM, first compound 3.16 µM
[42] = second compound 10 µM, first compound 10 µM
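Note: spheroids exposed to the compounds for 7 days.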
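Throughout, for viability, T/C: 100% = DMSO vehicle control viability.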

CC(C)CC(NC(=O)C(Cc1ccccc1)NC(=O)c1cnccn1)B(O)O (centres undefined) + CN1CCN(c2cc(C(=O)Nc3cc4cc(-c5cnn(C)c5)ccc4cn3)ccn2)CC1
active: viability, T/C (second compound 0.0316 µM, first compound 0.00949 µM) 1.41% | viability, T/C (second compound 0.0316 µM, first compound 0.03 µM) 0.55% | viability, T/C (second compound 0.0316 µM, first compound 0.0949 µM) 0.23% | viability, T/C (second compound 0.0316 µM, first compound 0.3 µM) 0.27% | viability, T/C (second compound 0.1 µM, first compound 0.00949 µM) 2.27% | viability, T/C (second compound 0.1 µM, first compound 0.03 µM) 0.42% | viability, T/C (second compound 0.1 µM, first compound 0.0949 µM) 0.14% | viability, T/C (second compound 0.1 µM, first compound 0.3 µM) 0.34% | viability, T/C (second compound 0.316 µM, first compound 0.00949 µM) 0.46% | viability, T/C (second compound 0.316 µM, first compound 0.03 µM) 0.14% | viability, T/C (second compound 0.316 µM, first compound 0.0949 µM) 0.13% | viability, T/C (second compound 0.316 µM, first compound 0.3 µM) 0.15% | viability, T/C (second compound 1 µM, first compound 0.000949 µM) 0.31% | viability, T/C (second compound 1 µM, first compound 0.003 µM) 0.22% | viability, T/C (second compound 1 µM, first compound 0.00949 µM) 1.17% | viability, T/C (second compound 1 µM, first compound 0.03 µM) 0.2% | viability, T/C (second compound 1 µM, first compound 0.0949 µM) 0.1% | viability, T/C (second compound 1 µM, first compound 0.3 µM) 0.14% | viability, T/C (second compound 3.16 µM, first compound 0.000949 µM) 0.33% | viability, T/C (second compound 3.16 µM, first compound 0.003 µM) 0.27% | viability, T/C (second compound 3.16 µM, first compound 0.00949 µM) 0.28% | viability, T/C (second compound 3.16 µM, first compound 0.03 µM) 0.14% | viability, T/C (second compound 3.16 µM, first compound 0.0949 µM) 0.4% | viability, T/C (second compound 3.16 µM, first compound 0.3 µM) 0.25% | viability, T/C (second compound 10 µM, first compound 0.000949 µM) 0.09% | viability, T/C (second compound 10 µM, first compound 0.003 µM) 3.32% | viability, T/C (second compound 10 µM, first compound 0.00949 µM) 3.67% | viability, T/C (second compound 10 µM, first compound 0.03 µM) 0.13% | viability, T/C (second compound 10 µM, first compound 0.0949 µM) 0.18% | viability, T/C (second compound 10 µM, first compound 0.3 µM) 0.22%
< 0.949 nM: IC50 [3] | IC50 [4] | IC50 [5] | IC50 [6]
4.5 nM: IC50 [2]
inactive: viability, T/C (second compound 0.0316 µM, first compound 0.000949 µM) 79.4% | viability, T/C (second compound 0.0316 µM, first compound 0.003 µM) 91.5% | viability, T/C (second compound 0.1 µM, first compound 0.000949 µM) 68.9% | viability, T/C (second compound 0.1 µM, first compound 0.003 µM) 83.1% | viability, T/C (second compound 0.316 µM, first compound 0.000949 µM) 20.8% | viability, T/C (second compound 0.316 µM, first compound 0.003 µM) 14.3%
4.88 nM: IC50 [1]

Nc1ccn(C2OC(CO)C(O)C2(F)F)c(=O)n1 (centres undefined) + CNC(=O)c1ccc(Nc2nc(OC3CCCC3)c3c(-c4ccc5nc(C)oc5c4)c[nH]c3n2)c(OC)c1
162 nM: IC50 [3]
518 nM: IC50 [2]
646 nM: IC50 [1]
< 31.6 nM: IC50 [4] | IC50 [5] | IC50 [6]
inactive: viability, T/C [7] 108% | viability, T/C [8] 80.2% | viability, T/C [9] 56.3% | viability, T/C [10] 46.7% | viability, T/C [11] 41.6% | viability, T/C [12] 43.5% | viability, T/C [13] 80.6% | viability, T/C [14] 97.9% | viability, T/C [15] 57.8% | viability, T/C [16] 42.3% | viability, T/C [17] 42.9% | viability, T/C [18] 33.8% | viability, T/C [19] 56.4% | viability, T/C [20] 53.7% | viability, T/C [21] 48% | viability, T/C [22] 35.3% | viability, T/C [23] 35% | viability, T/C [24] 22.3% | viability, T/C [25] 42.9% | viability, T/C [26] 37.5% | viability, T/C [27] 33.6% | viability, T/C [28] 23.1% | viability, T/C [29] 26.2% | viability, T/C [30] 18% | viability, T/C [31] 40% | viability, T/C [32] 42.1% | viability, T/C [33] 30.3% | viability, T/C [34] 23.8% | viability, T/C [35] 22.7% | viability, T/C [36] 16.5% | viability, T/C [37] 39.2% | viability, T/C [38] 36.8% | viability, T/C [39] 33.7% | viability, T/C [40] 25.5% | viability, T/C [41] 19.4% | viability, T/C [42] 23.1%

O=c1[nH]cc(F)c(=O)[nH]1
1990 nM and 4140 nM: IC50 (curve of compound)
inactive: viability, T/C (compound 0.0316 µM) 96.6% and 97.4% | viability, T/C (compound 0.1 µM) 99.9% and 74.5% | viability, T/C (compound 0.316 µM) 85.2% and 65.8% | viability, T/C (compound 1 µM) 65.2% and 55.6% | viability, T/C (compound 3.16 µM) 38.4% and 53.1% | viability, T/C (compound 10 µM) 37% and 45.6%

Nc1ccccc1NC(=O)c1ccc(CNC(=O)OCc2cccnc2)cc1 + CN1CCN(c2cc(C(=O)Nc3cc4cc(-c5cnn(C)c5)ccc4cn3)ccn2)CC1
inactive: viability, T/C [7] 86.7% | viability, T/C [8] 79.6% | viability, T/C [9] 88.7% | viability, T/C [10] 116% | viability, T/C [11] 94.5% | viability, T/C [12] 35.2% | viability, T/C [13] 73.2% | viability, T/C [14] 67.8% | viability, T/C [15] 72.5% | viability, T/C [16] 102% | viability, T/C [17] 62.8% | viability, T/C [18] 21.2% | viability, T/C [19] 13.4% | viability, T/C [20] 15.8% | viability, T/C [21] 15.8% | viability, T/C [22] 17.9%
4500 nM: IC50 [2]
< 31.6 nM: IC50 [3] | IC50 [4] | IC50 [5] | IC50 [6]
active: viability, T/C [23] 7.51% | viability, T/C [24] 0.19% | viability, T/C [25] 0.32% | viability, T/C [26] 6.56% | viability, T/C [27] 0.28% | viability, T/C [28] 0.17% | viability, T/C [29] 0.12% | viability, T/C [30] 2.14% | viability, T/C [31] 0.23% | viability, T/C [32] 0.27% | viability, T/C [33] 0.18% | viability, T/C [34] 0.2% | viability, T/C [35] 0.27% | viability, T/C [36] 0.26% | viability, T/C [37] 0.1% | viability, T/C [38] 0.32% | viability, T/C [39] 0.16% | viability, T/C [40] 0.14% | viability, T/C [41] 0.18% | viability, T/C [42] 2.46%
7470 nM: IC50 [1]

CC(=O)O[C@H]1C(=O)[C@@]2(C)[C@H]([C@H](OC(=O)c3ccccc3)[C@]3(O)C[C@H](OC(=O)[C@H](O)[C@@H](NC(=O)c4ccccc4)c4ccccc4)C(C)=C1C3(C)C)[C@]1(OC(C)=O)CO[C@@H]1C[C@@H]2O + CNC(=O)c1ccc(Nc2nc(OC3CCCC3)c3c(-c4ccc5nc(C)oc5c4)c[nH]c3n2)c(OC)c1
< 31.6 nM: IC50 [1] | IC50 [2] | IC50 [4] | IC50 [5] | IC50 [6]
inactive: viability, T/C [7] 47.4% | viability, T/C [8] 33.5% | viability, T/C [9] 39.4% | viability, T/C [10] 41.9% | viability, T/C [11] 48.9% | viability, T/C [12] 66.2% | viability, T/C [13] 53.9% | viability, T/C [14] 43.9% | viability, T/C [15] 50% | viability, T/C [16] 55.7% | viability, T/C [17] 62.7% | viability, T/C [18] 66.5% | viability, T/C [19] 54.3% | viability, T/C [20] 65.1% | viability, T/C [21] 72.6% | viability, T/C [22] 66.5% | viability, T/C [23] 77.6% | viability, T/C [24] 70.1% | viability, T/C [25] 47.1% | viability, T/C [26] 49.9% | viability, T/C [27] 53% | viability, T/C [28] 62.3% | viability, T/C [29] 52.6% | viability, T/C [30] 61.9% | viability, T/C [31] 47.8% | viability, T/C [32] 45.7% | viability, T/C [33] 52.4% | viability, T/C [34] 51% | viability, T/C [35] 57.5% | viability, T/C [36] 64.3% | viability, T/C [37] 43.7% | viability, T/C [38] 53% | viability, T/C [39] 58.3% | viability, T/C [40] 52.4% | viability, T/C [41] 57.6% | viability, T/C [42] 50.5%
> 10000 nM: IC50 [3]

CCCS(=O)(=O)Nc1ccc(F)c(C(=O)c2c[nH]c3ncc(-c4ccc(Cl)cc4)cc23)c1F
> 10000 nM: IC50 (curve of compound)
inactive: viability, T/C (compound 0.0316 µM) 115% and 95.8% | viability, T/C (compound 0.1 µM) 113% and 129% | viability, T/C (compound 0.316 µM) 116% and 105% | viability, T/C (compound 1 µM) 111% and 136% | viability, T/C (compound 3.16 µM) 120% and 141% | viability, T/C (compound 10 µM) 85.7% and 73.7%

Nc1ccn(C2OC(CO)C(O)C2(F)F)c(=O)n1 (centres undefined)
inactive: viability, T/C (compound 0.0316 µM) 81.2% and 81.7% | viability, T/C (compound 0.1 µM) 78.9% and 76.2% | viability, T/C (compound 0.316 µM) 49.2% and 54.9% | viability, T/C (compound 1 µM) 31.5% and 44.2% | viability, T/C (compound 3.16 µM) 25.7% and 40.5% | viability, T/C (compound 10 µM) 30.1% and 32.9%
311 nM and 572 nM: IC50 (curve of compound)
